Results on six molecules are retold here after patent US11225505B2, “Antimicrobial polymyxin derivative compounds” (MONASH UNIVERSITY, priority 2015, dated 2022).

What all share (format): cell-based
Assay [1] concerns Acinetobacter baumannii ATCC 17978. Particulars: ATCC 17978. The gist of the method: (§1)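 Broth microdilution, CAMHB, per CLSI M100-S24; lipopeptides as TFA salts; polymyxin B sulphate control. Read-out: MIC. Strains are polymyxin-susceptible; PA022 and AB034 are MDR clinical isolates.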
Assay [2] concerns Acinetobacter baumannii FADDI-AB034. Particulars: FADDI-AB034. The gist of the method: as §1
Assay [3] relates to Enterobacter cloacae FADDI-EC001. Particulars: FADDI-EC001. The gist of the method:
(§2)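 In cation-adjusted Mueller-Hinton broth, each lipopeptide (TFA salt) was titrated against the bacteria by microdilution and the minimum inhibitory concentration recorded per CLSI M100-S24; polymyxin B sulphate ran in parallel.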

Assay [4] deals with Enterobacter cloacae FADDI-EC003. Particulars: FADDI-EC003. The gist of the method: as §1
Assay [5] deals with Enterobacter cloacae FADDI-EC006. Particulars: FADDI-EC006. The gist of the method:
as §1

For assay [6], the system named is Klebsiella pneumoniae FADDI-KP022. Particulars: FADDI-KP022. In short, it runs like this:
as §1

The subject of assay [7] is Klebsiella pneumoniae FADDI-KP032. Particulars: FADDI-KP032. The gist of the method:
as §1

The subject of assay [8] is Klebsiella pneumoniae Kp BM1. Particulars: Kp BM1. The gist of the method:
as §2

Assay [9] has as its system Pseudomonas aeruginosa ATCC 27853. Particulars: ATCC 27853. The gist of the method: as §1
The test system of assay [10] is Pseudomonas aeruginosa FADDI-PA01. Particulars: FADDI-. The gist of the method:
as §1

Assay [11] relates to Pseudomonas aeruginosa FADDI-PA022. Particulars: FADDI-PA022. The gist of the method:
as §1

For assay [12], the system named is Pseudomonas aeruginosa FADDI-PA038. Particulars: FADDI-PA038. The gist of the method:
as §1

The subject of assay [13] is Acinetobacter baumannii FADDI-AB030. Kind of assay: microbe, parasite or virus in culture. Particulars: FADDI-AB030. The gist of the method: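 Lipopeptide TFA salts tested against the multidrug-resistant clinical isolate by CLSI (M100-S24) broth microdilution in cation-adjusted Mueller-Hinton broth, with polymyxin B sulphate as control; MIC read.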

The structures appear in SMILES notation. ≈ marks a conversion by molar mass, not a printed value. Where a SMILES comes first, the peptide text is derived from it. Bridges are numbered along the chain shown (N, C = ends). [ ]: non-standard residue; d: D form. The star is where a group is joined. X47 = O=C(c1cc2cc(Cl)ccc2[nH]1)*; X9 = O=C(c1ccnc(C(F)(F)F)c1)*; X56 = Cn1cc(C(=O)*)c2ccccc21; X2 = O=C(c1cc(Cl)cc(Cl)n1)*; X28 = Cc1cc(C(=O)*)cc(Cl)n1; X50 = O=C(c1sc(Br)cc1Br)*; Dab = NCC[C@H](N)C(=O)O; Abu = CC[C@H](N)C(=O)O; Dap = NC[C@H](N)C(=O)O Bounds are passed on as bounds.

Turning to `CC(C)C[C@H]1NC(=O)[C@H](CCN)NC(=O)[C@@H](NC(=O)[C@H](CN)NC(=O)[C@@H](NC(=O)[C@H](CCN)NC(=O)c2sc(Br)cc2Br)[C@@H](C)O)CCNC(=O)[C@H]([C@@H](C)O)NC(=O)[C@H](CCN)NC(=O)[C@H](CCN)NC(=O)[C@H]([C@@H](C)O)NC1=O` [Compound 100] (X50-[Dab]T[Dap][Dab][Dab][dL]T[Dab][Dab]T; lactam 4-C), the Minimum inhibitory concentration is on record as 0.25 mg/L (≈ 0.197 µM) in [1]; 0.5 mg/L (≈ 0.393 µM) in assay [2]; under 0.125 mg/L in assay [3]; under 0.125 mg/L in assay [4]; under 0.125 mg/L in [5]; under 0.125 mg/L in assay [6]. For the same molecule, the Minimum inhibitory concentration is 0.25 mg/L (≈ 0.197 µM) in assay [7]; 0.5 mg/L (≈ 0.393 µM) in [8]; under 0.125 mg/L in [9]; under 0.125 mg/L in [10]; under 0.125 mg/L in assay [11]; 1 mg/L (≈ 0.787 µM) in assay [12]. Moreover, the Minimum inhibitory concentration in assay [13] was 0.5 mg/L (≈ 0.393 µM).

In the case of `CC[C@@H]1NC(=O)[C@@H](CC(C)C)NC(=O)[C@H](CCN)NC(=O)[C@@H](NC(=O)[C@H](CN)NC(=O)[C@@H](NC(=O)[C@H](CCN)NC(=O)c2cc3cc(Cl)ccc3[nH]2)[C@@H](C)O)CCNC(=O)[C@H]([C@@H](C)O)NC(=O)[C@H](CCN)NC(=O)[C@H](CCN)NC1=O` [Compound 59] (X47-[Dab]T[Dap][Dab][Dab][dL][Abu][Dab][Dab]T; lactam 4-C), the Minimum inhibitory concentration in assay [1] was 0.5 mg/L (≈ 0.429 µM); in assay [2] it was under 0.125 mg/L; in assay [3], 0.25 mg/L (≈ 0.215 µM); in [4], 0.25 mg/L (≈ 0.215 µM); in assay [5], 0.5 mg/L (≈ 0.429 µM); in assay [6], under 0.125 mg/L. The Minimum inhibitory concentration in assay [7] is reported as 0.25 mg/L (≈ 0.215 µM); in assay [8], 0.5 mg/L (≈ 0.429 µM); in [9], 0.5 mg/L (≈ 0.429 µM); in assay [10], 0.25 mg/L (≈ 0.215 µM); in assay [11], 0.5 mg/L (≈ 0.429 µM); in [12] it was 1 mg/L (≈ 0.859 µM). The molecule further showed a Minimum inhibitory concentration in assay [13] of 0.5 mg/L (≈ 0.429 µM).

Take `CC[C@@H]1NC(=O)[C@@H](CC(C)C)NC(=O)[C@H](CCN)NC(=O)[C@@H](NC(=O)[C@H](CN)NC(=O)[C@@H](NC(=O)[C@H](CCN)NC(=O)c2cc(Cl)cc(Cl)n2)[C@@H](C)O)CCNC(=O)[C@H]([C@@H](C)O)NC(=O)[C@H](CCN)NC(=O)[C@H](CCN)NC1=O` [Compound 18] (X2-[Dab]T[Dap][Dab][Dab][dL][Abu][Dab][Dab]T; lactam 4-C): the Minimum inhibitory concentration is given as 1 mg/L (≈ 0.861 µM) in [1]; 0.25 mg/L (≈ 0.215 µM) in [2]; under 0.125 mg/L in assay [3]; 0.5 mg/L (≈ 0.431 µM) in assay [4]; 0.25 mg/L (≈ 0.215 µM) in [5]; under 0.125 mg/L in assay [6]. Further, the Minimum inhibitory concentration in [7] is recorded as 0.25 mg/L (≈ 0.215 µM); in [8] it was 0.25 mg/L (≈ 0.215 µM); in assay [9], 0.25 mg/L (≈ 0.215 µM); in assay [10], 0.25 mg/L (≈ 0.215 µM); in [11], 0.5 mg/L (≈ 0.431 µM); in assay [12] it was 1 mg/L (≈ 0.861 µM). In assay [13], this molecule came in with a Minimum inhibitory concentration of 0.5 mg/L (≈ 0.431 µM).

As to `CC(C)C[C@H]1NC(=O)[C@H](CCN)NC(=O)[C@@H](NC(=O)[C@H](CN)NC(=O)[C@@H](NC(=O)[C@H](CCN)NC(=O)c2ccnc(C(F)(F)F)c2)[C@@H](C)O)CCNC(=O)[C@H]([C@@H](C)O)NC(=O)[C@H](CCN)NC(=O)[C@H](CCN)NC(=O)[C@H]([C@@H](C)O)NC1=O` [Compound 32] (X9-[Dab]T[Dap][Dab][Dab][dL]T[Dab][Dab]T; lactam 4-C; N-terminus assumed), the Minimum inhibitory concentration in assay [1] is recorded as 4 mg/L (≈ 3.4 µM); in assay [2], 2 mg/L (≈ 1.7 µM); in assay [3], 1 mg/L (≈ 0.85 µM); in assay [4], 0.5 mg/L (≈ 0.425 µM); in [5], 1 mg/L (≈ 0.85 µM); in [6] it was under 0.125 mg/L. For the same molecule, the Minimum inhibitory concentration in assay [7] was 0.25 mg/L (≈ 0.213 µM); in [8], 1 mg/L (≈ 0.85 µM); in [9], 0.5 mg/L (≈ 0.425 µM); in [10], 1 mg/L (≈ 0.85 µM); in assay [11], 0.5 mg/L (≈ 0.425 µM); in assay [12] it was 0.5 mg/L (≈ 0.425 µM). Moreover, the Minimum inhibitory concentration in assay [13] came out at 1 mg/L (≈ 0.85 µM).

Regarding `CC[C@@H]1NC(=O)[C@@H](CC(C)C)NC(=O)[C@H](CCN)NC(=O)[C@@H](NC(=O)[C@H](CN)NC(=O)[C@@H](NC(=O)[C@H](CCN)NC(=O)c2cn(C)c3ccccc23)[C@@H](C)O)CCNC(=O)[C@H]([C@@H](C)O)NC(=O)[C@H](CCN)NC(=O)[C@H](CCN)NC1=O` [Compound 63] (X56-[Dab]T[Dap][Dab][Dab][dL][Abu][Dab][Dab]T; lactam 4-C), the Minimum inhibitory concentration in assay [1] was 1 mg/L (≈ 0.874 µM); in assay [2] it was 1 mg/L (≈ 0.874 µM); in assay [3], under 0.125 mg/L; in assay [4], 2 mg/L (≈ 1.75 µM); in assay [5] it was 2 mg/L (≈ 1.75 µM); in [6], under 0.125 mg/L. Further, the Minimum inhibitory concentration in assay [7] is under 0.125 mg/L; in [8], under 0.125 mg/L; in assay [9], 0.5 mg/L (≈ 0.437 µM); in assay [10], under 0.125 mg/L; in assay [11] it was 0.25 mg/L (≈ 0.218 µM); in [12] it was 0.5 mg/L (≈ 0.437 µM). Moreover, the Minimum inhibitory concentration in [13] turned out to be 0.5 mg/L (≈ 0.437 µM).

As for `CC[C@@H]1NC(=O)[C@@H](CC(C)C)NC(=O)[C@H](CCN)NC(=O)[C@@H](NC(=O)[C@H](CN)NC(=O)[C@@H](NC(=O)[C@H](CCN)NC(=O)c2cc(C)nc(Cl)c2)[C@@H](C)O)CCNC(=O)[C@H]([C@@H](C)O)NC(=O)[C@H](CCN)NC(=O)[C@H](CCN)NC1=O` [Compound 39] (X28-[Dab]T[Dap][Dab][Dab][dL][Abu][Dab][Dab]T; lactam 4-C), the Minimum inhibitory concentration was 1 mg/L (≈ 0.877 µM) in assay [1]; 1 mg/L (≈ 0.877 µM) in [2]; 0.5 mg/L (≈ 0.438 µM) in assay [3]; 0.5 mg/L (≈ 0.438 µM) in assay [4]; 1 mg/L (≈ 0.877 µM) in [5]; under 0.125 mg/L in assay [6]. Also, the Minimum inhibitory concentration was found to be 0.5 mg/L (≈ 0.438 µM) in assay [7]; 1 mg/L (≈ 0.877 µM) in assay [8]; 0.5 mg/L (≈ 0.438 µM) in assay [9]; 0.5 mg/L (≈ 0.438 µM) in assay [10]; 0.5 mg/L (≈ 0.438 µM) in assay [11]; 1 mg/L (≈ 0.877 µM) in assay [12]. Besides, the Minimum inhibitory concentration in [13] stood at 0.5 mg/L (≈ 0.438 µM).
